*1 amine or outer side, *2 acyl side, *3 side chain or, on linkers, in order; H or OH if unused. Where a SMILES comes first, the peptide text is derived from it. Bridges are numbered along the chain shown (N, C = ends). [ ]: non-standard residue; d: D form. The star is where a group is joined. C20 diacid = O=C(O)CCCCCCCCCCCCCCCCCCC(=O)*; γGlu = O=C(O)[C@H](CCC(=O)[*:2])N[*:1]; Hyp = O=C(O)[C@@H]1C[C@@H](O)CN1; NMeI = CC[C@H](C)[C@H](NC)C(=O)O; Aad = N[C@@H](CCCC(=O)O)C(=O)O; Sar = CNCC(=O)O
Key:
[1] = Assessment of chemical stability (RP-HPLC normalized purity); type: physicochemical; settings: for Normalized purity after 7 days, 40° C., pH 4: pH 4, 0.2 mg/ml; for Normalized purity after 7 days, 40° C., pH 4 / Normalized purity after 7 days, 40° C., pH 6 / Normalized purity after 7 days, 40° C., pH 7.5 / Normalized purity after 7 days, 40° C., pH 9: Table 1; for Normalized purity after 7 days, 40° C., pH 6: pH 6, 0.2 mg/ml; for Normalized purity after 7 days, 40° C., pH 7.5: pH 7.5, 0.2 mg/ml; for Normalized purity after 7 days, 40° C., pH 9: pH 9, 0.2 mg/ml
In short: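 Peptides at 0.2 mg/ml in water adjusted to pH 4, 6, 7.5 or 9, incubated at 40° C for 7 days. Main-peak area-% by RP-HPLC (C8 ammonium formate or C18 TFA gradient, UV 220 nm), normalized to T=0 as 100.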

[2] = Assessment of physical stability (Thioflavin T fibrillation); type: physicochemical; design: key: FND = fibrillation not detected; FD = fibrillation detected; settings: 1 mg/ml, 40° C., ThT; for Fibrillation pH 4.0 (Ac): 50 mM acetate buffer pH 4.0, 96 hours; for Fibrillation pH 7.0 (His): 50 mM histidine buffer pH 7.0, 96 hours; for Fibrillation pH 7.0 (Phos.): 50 mM phosphate buffer pH 7.0, 96 hours
In short: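 1 mg/ml peptide with 40 μM ThT in 50 mM phosphate pH 7.0, 50 mM histidine pH 7.0 or 50 mM acetate pH 4.0, in triplicate. Fluorescence read every 10 min after 300 s agitation over 96 h at 40 °C. Lag-time (h) is the intersection of linear fits to stable and growth phases.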

[3] = biological target: T1, human amylin receptor 3 (hAMYR3), hCTR2 co-expressed with hRAMP3 (Homo sapiens, UniProt O60896+P30988); experiment: hAMYR3 cAMP assay (AlphaScreen) in COS7 cells; type: cell-based; settings: cAMP induction, COS7 cells expressing hAMYR3; Table 1; read-out: hAMYR3 EC50
T1 construct: expressed in transfected cells
T1 sequence (P30988 25-474): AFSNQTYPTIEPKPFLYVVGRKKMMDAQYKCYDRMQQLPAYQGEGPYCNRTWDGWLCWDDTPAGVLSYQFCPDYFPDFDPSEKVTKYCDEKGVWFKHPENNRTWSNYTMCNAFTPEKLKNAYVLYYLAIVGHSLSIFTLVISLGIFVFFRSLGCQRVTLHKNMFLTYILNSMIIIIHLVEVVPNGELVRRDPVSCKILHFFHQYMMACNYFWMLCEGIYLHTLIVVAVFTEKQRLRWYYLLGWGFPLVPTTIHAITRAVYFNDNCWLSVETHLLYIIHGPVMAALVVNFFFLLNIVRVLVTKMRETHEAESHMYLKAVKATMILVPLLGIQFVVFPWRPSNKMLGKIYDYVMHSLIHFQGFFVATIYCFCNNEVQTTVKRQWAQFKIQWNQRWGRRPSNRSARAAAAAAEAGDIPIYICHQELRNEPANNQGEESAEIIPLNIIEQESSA
T1 sequence (O60896 24-148 partner): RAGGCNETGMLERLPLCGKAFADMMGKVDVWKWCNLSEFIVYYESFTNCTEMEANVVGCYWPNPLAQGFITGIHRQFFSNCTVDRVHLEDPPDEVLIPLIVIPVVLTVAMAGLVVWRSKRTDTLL
In short: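 Stable COS7 clone co-expressing hCTR2 and hRAMP3 was exposed to increasing peptide concentrations in Tyrode buffer (pH 7.4) with 100 µM IBMX and 0.1% casein for 15 min at 37 °C. Lysate cAMP was measured by AlphaScreen; EC50 came from 4-parameter logistic fitting.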

Normalized purity after 7 days, 40° C., pH 4 [1]	Normalized purity pH 4 (Table 5) ([1]; pH 4, repeat of Example 6 for pairs with/without Asn-Asn at 21-22)	Normalized purity after 7 days, 40° C., pH 6 [1]	Normalized purity pH 6 (Table 5) ([1]; pH 6, repeat of Example 6 for pairs with/without Asn-Asn at 21-22)	Normalized purity after 7 days, 40° C., pH 7.5 [1]	Normalized purity pH 7.5 (Table 5) ([1]; pH 7.5, repeat of Example 6 for pairs with/without Asn-Asn at 21-22)	Normalized purity after 7 days, 40° C., pH 9 [1]	Normalized purity pH 9 (Table 5) ([1]; pH 9, repeat of Example 6 for pairs with/without Asn-Asn at 21-22)	Fibrillation pH 4.0 (Ac) [2]	Fibrillation pH 7.0 (His) [2]	Fibrillation pH 7.0 (Phos.) [2]	EC50 [3]	SMILES
A (A = >90%)	A (A = >90%)	A (A = >90%)	A (A = >90%)	A (A = >90%)	A (A = >90%)	B (B = 70-90%)	B (B = 70-90%)	FND	FND	FND	0.08 nM	CC[C@H](C)[C@@H](C(=O)N[C@@H](CC(C)C)C(=O)N[C@@H](CO)C(=O)N[C@@H](CO)C(=O)N[C@H](C(=O)N[C@@H](CCC(=O)O)C(=O)N[C@H](C(=O)NCC(=O)N[C@@H](CO)C(=O)N[C@@H](CC(N)=O)C(=O)N[C@H](C(=O)N1C[C@H](O)C[C@H]1C(N)=O)[C@@H](C)O)C(C)C)[C@@H](C)O)N(C)C(=O)[C@H](C)NC(=O)CN(C)C(=O)[C@H](Cc1ccccc1)NC(=O)[C@H](CO)NC(=O)[C@H](CO)NC(=O)[C@H](CCCNC(=N)N)NC(=O)[C@H](CCC(N)=O)NC(=O)[C@H](CC(C)C)NC(=O)[C@H](Cc1ccccc1)NC(=O)[C@H](CCCC(=O)O)NC(=O)[C@H](C)NC(=O)[C@H](CC(C)C)NC(=O)[C@H](CCCNC(=N)N)NC(=O)[C@H](CCC(=O)O)NC(=O)[C@@H](NC(=O)[C@H](C)NC(=O)[C@@H]1CSSC[C@H](NC(=O)[C@H](CCCNC(=N)N)NC(=O)CC[C@H](NC(=O)CCCCCCCCCCCCCCCCCCC(=O)O)C(=O)O)C(=O)NCC(=O)N[C@@H]([C@@H](C)O)C(=O)N[C@@H](C)C(=O)N[C@@H]([C@@H](C)O)C(=O)N1)[C@@H](C)O [Compound 55, [19CD]-isoGlu-R-C( )-GTAT-C( )-ATERLA-Aad-FLQRSSF-Gly(Me)-A-Ile(Me)-LSSTEVGSNT-Hyp-NH2] ({C20 diacid-γGlu}-RCGTATCATERLA[Aad]FLQRSSF[Sar]A[NMeI]LSSTEVGSNT[Hyp]-NH2; disulfide 2-7)
A (A = >90%)		A (A = >90%)		A (A = >90%)		B (B = 70-90%)		FD	FND	FND	0.15 nM	CC[C@H](C)[C@@H](C(=O)N[C@@H](CC(C)C)C(=O)N[C@@H](CO)C(=O)N[C@@H](CO)C(=O)N[C@H](C(=O)N[C@@H](CCC(=O)O)C(=O)N[C@H](C(=O)NCC(=O)N[C@@H](CO)C(=O)N[C@@H](CC(N)=O)C(=O)N[C@H](C(=O)N1C[C@H](O)C[C@H]1C(N)=O)[C@@H](C)O)C(C)C)[C@@H](C)O)N(C)C(=O)[C@H](C)NC(=O)CN(C)C(=O)[C@H](Cc1ccccc1)NC(=O)[C@H](CO)NC(=O)[C@H](CO)NC(=O)[C@H](CCCNC(=N)N)NC(=O)[C@H](CCC(N)=O)NC(=O)[C@H](CC(C)C)NC(=O)[C@H](Cc1ccccc1)NC(=O)[C@H](CC(=O)O)NC(=O)[C@H](C)NC(=O)[C@H](CC(C)C)NC(=O)[C@H](CCCNC(=N)N)NC(=O)[C@H](CCC(N)=O)NC(=O)[C@@H](NC(=O)[C@H](C)NC(=O)[C@@H]1CSSC[C@H](NC(=O)[C@H](CCCNC(=N)N)NC(=O)CC[C@H](NC(=O)CCCCCCCCCCCCCCCCCCC(=O)O)C(=O)O)C(=O)N[C@@H](CC(N)=O)C(=O)N[C@@H]([C@@H](C)O)C(=O)N[C@@H](C)C(=O)N[C@@H]([C@@H](C)O)C(=O)N1)[C@@H](C)O [Compound 49, [19CD]-isoGlu-R-C( )-NTAT-C( )-ATQRLADFLQRSSF-Gly(Me)-A-Ile(Me)-LSSTEVGSNT-Hyp-NH2] ({C20 diacid-γGlu}-RCNTATCATQRLADFLQRSSF[Sar]A[NMeI]LSSTEVGSNT[Hyp]-NH2; disulfide 2-7)
A (A = >90%)		A (A = >90%)		A (A = >90%)		B (B = 70-90%)		FND	FD	FD	0.18 nM	CC[C@H](C)[C@@H](C(=O)N[C@@H](CC(C)C)C(=O)N[C@@H](CO)C(=O)N[C@@H](CO)C(=O)N[C@H](C(=O)N[C@@H](CCC(=O)O)C(=O)N[C@H](C(=O)NCC(=O)N[C@@H](CO)C(=O)NCC(=O)N[C@H](C(=O)N1C[C@H](O)C[C@H]1C(N)=O)[C@@H](C)O)C(C)C)[C@@H](C)O)N(C)C(=O)[C@H](C)NC(=O)CN(C)C(=O)[C@H](Cc1ccccc1)NC(=O)[C@H](CO)NC(=O)[C@H](CO)NC(=O)[C@H](CCCNC(=N)N)NC(=O)[C@H](CCC(N)=O)NC(=O)[C@H](CC(C)C)NC(=O)[C@H](Cc1ccccc1)NC(=O)[C@H](Cc1c[nH]cn1)NC(=O)[C@H](C)NC(=O)[C@H](CC(C)C)NC(=O)[C@H](CCCNC(=N)N)NC(=O)[C@H](CCC(N)=O)NC(=O)[C@@H](NC(=O)[C@H](C)NC(=O)[C@@H]1CSSC[C@H](NC(=O)[C@H](CCCNC(=N)N)NC(=O)CC[C@H](NC(=O)CCCCCCCCCCCCCCCCCCC(=O)O)C(=O)O)C(=O)N[C@@H](CC(N)=O)C(=O)N[C@@H]([C@@H](C)O)C(=O)N[C@@H](C)C(=O)N[C@@H]([C@@H](C)O)C(=O)N1)[C@@H](C)O [Compound 71, [19CD]-isoGlu-R-C( )-NTAT-C( )-ATQRLAHFLQRSSF-Gly(Me)-A-Ile(Me)-LSSTEVGSGT-Hyp-NH2] ({C20 diacid-γGlu}-RCNTATCATQRLAHFLQRSSF[Sar]A[NMeI]LSSTEVGSGT[Hyp]-NH2; disulfide 2-7)
A (A = >90%)		A (A = >90%)		A (A = >90%)		A (A = >90%)		FND	FND	FND		CC[C@H](C)[C@@H](C(=O)N[C@@H](CC(C)C)C(=O)N[C@@H](CO)C(=O)N[C@@H](CO)C(=O)N[C@H](C(=O)N[C@@H](CCC(=O)O)C(=O)N[C@H](C(=O)NCC(=O)N[C@@H](CO)C(=O)N[C@@H](CC(N)=O)C(=O)N[C@H](C(=O)N1C[C@H](O)C[C@H]1C(N)=O)[C@@H](C)O)C(C)C)[C@@H](C)O)N(C)C(=O)[C@H](C)NC(=O)CN(C)C(=O)[C@H](Cc1ccccc1)NC(=O)[C@H](CO)NC(=O)[C@H](CO)NC(=O)[C@H](CCCNC(=N)N)NC(=O)[C@H](CCC(N)=O)NC(=O)[C@H](CC(C)C)NC(=O)[C@H](Cc1ccccc1)NC(=O)[C@H](Cc1c[nH]cn1)NC(=O)[C@H](C)NC(=O)[C@H](CC(C)C)NC(=O)[C@H](CCCNC(=N)N)NC(=O)[C@H](CCC(=O)O)NC(=O)[C@@H](NC(=O)[C@H](C)NC(=O)[C@@H]1CSSC[C@H](NC(=O)[C@H](CCCNC(=N)N)NC(=O)CC[C@H](NC(=O)CCCCCCCCCCCCCCCCCCC(=O)O)C(=O)O)C(=O)NCC(=O)N[C@@H]([C@@H](C)O)C(=O)N[C@@H](C)C(=O)N[C@@H]([C@@H](C)O)C(=O)N1)[C@@H](C)O [Compound 7, [19CD]-isoGlu-R-C( )-GTAT-C( )-ATERLAHFLQRSSF-Gly(Me)-A-Ile(Me)-LSSTEVGSNT-Hyp-NH2] ({C20 diacid-γGlu}-RCGTATCATERLAHFLQRSSF[Sar]A[NMeI]LSSTEVGSNT[Hyp]-NH2; disulfide 2-7)
